Values of other authors as cited in patent publication US10668130B2, “Formulation for targeting cancer in humans and canines using chlorotoxin” (priority 2017, dated 2020).

Tests used:
[1] = tested on: Ca2+-activated Cl— channels; conditions: sub-micromolar concentrations
[2] = tested on: outwardly rectifying Cl— channels; conditions: planar lipid bilayers
[3] = tested on: volume-regulated Cl— channels; conditions: sub-micromolar concentrations
CFTR Cl— channels = CFTR Cl— channels (Homo sapiens, UniProt P13569); conditions: sub-micromolar concentrations
Chain of CFTR Cl— channels (P13569 whole entry): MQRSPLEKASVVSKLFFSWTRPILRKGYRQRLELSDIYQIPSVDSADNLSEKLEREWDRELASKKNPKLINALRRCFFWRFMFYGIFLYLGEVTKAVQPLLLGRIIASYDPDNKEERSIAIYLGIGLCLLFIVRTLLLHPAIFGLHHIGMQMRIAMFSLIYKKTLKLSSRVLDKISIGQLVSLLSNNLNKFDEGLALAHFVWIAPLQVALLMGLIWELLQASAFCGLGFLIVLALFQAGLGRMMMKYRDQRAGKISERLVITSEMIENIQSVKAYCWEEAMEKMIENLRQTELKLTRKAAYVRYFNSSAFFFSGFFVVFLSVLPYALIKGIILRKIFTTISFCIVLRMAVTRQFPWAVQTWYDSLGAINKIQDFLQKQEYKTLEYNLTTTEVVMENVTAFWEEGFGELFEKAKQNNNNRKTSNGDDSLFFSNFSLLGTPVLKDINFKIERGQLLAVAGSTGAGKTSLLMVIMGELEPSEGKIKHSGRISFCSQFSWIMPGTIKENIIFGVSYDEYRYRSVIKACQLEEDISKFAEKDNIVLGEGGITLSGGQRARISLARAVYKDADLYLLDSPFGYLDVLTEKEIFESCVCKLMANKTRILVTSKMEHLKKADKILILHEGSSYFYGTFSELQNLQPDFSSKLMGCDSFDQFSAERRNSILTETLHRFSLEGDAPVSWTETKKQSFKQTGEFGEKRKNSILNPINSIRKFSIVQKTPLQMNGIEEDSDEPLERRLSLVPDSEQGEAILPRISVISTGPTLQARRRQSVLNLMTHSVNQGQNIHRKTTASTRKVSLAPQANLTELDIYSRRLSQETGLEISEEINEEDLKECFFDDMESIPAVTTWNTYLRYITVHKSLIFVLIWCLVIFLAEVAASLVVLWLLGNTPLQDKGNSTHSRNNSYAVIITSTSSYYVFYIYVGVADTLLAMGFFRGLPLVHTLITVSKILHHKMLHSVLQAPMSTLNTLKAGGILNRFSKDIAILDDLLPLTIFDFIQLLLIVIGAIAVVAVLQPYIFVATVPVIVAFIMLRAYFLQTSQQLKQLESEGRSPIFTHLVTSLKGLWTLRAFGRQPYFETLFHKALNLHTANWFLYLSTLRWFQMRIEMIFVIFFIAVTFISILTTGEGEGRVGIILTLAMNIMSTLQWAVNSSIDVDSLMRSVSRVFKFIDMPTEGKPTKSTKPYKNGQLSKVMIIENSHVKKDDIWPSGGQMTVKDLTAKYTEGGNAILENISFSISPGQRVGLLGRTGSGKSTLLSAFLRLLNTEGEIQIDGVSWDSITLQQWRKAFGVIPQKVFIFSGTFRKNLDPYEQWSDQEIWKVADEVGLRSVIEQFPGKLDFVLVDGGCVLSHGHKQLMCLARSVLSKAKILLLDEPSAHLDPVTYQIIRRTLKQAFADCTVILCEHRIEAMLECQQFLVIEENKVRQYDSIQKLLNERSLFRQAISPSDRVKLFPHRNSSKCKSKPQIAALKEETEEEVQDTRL

Substance: chlorotoxin
- effect on Ca2+-activated Cl— channels [1]: without effect
- effect on outwardly rectifying Cl— channels [2]: inhibited
- effect on volume-regulated Cl— channels [3]: without effect
- effect on CFTR Cl— channels (CFTR Cl— channels): without effect
